Laboratory results from patent US7354734B2, “Fungal proteins and nucleic acids encoding same” (priority 2003, dated 2008).
“And” between values parts separate entries of the source, which are not always exact repeats. Equal entries are not always repeated. Where two headings read alike, the source gives them in different places. Where a SMILES comes first, the peptide text is derived from it. [ ]: non-standard residue; d: D form. The star is where a group is joined. Sta = CC(C)C[C@H](N)[C@@H](O)CC(=O)O; Isovaleryl = CC(C)CC(=O)*

Tests used:
ruLAP2 = ruLAP2 (Trichophyton rubrum, UniProt Q5QHG6); format: biochemical; settings: for ruLAP2 activity as percentage of control reaction without any cation / ruLAP2 activity as percentage of control reaction without inhibitor: Leu-MCA substrate, 15 min pre-incubation; for effect of inhibitor on ruLAP2 activity: Leu-AMC 5 mM
ruLAP2, sequence (Q5QHG6 20-495): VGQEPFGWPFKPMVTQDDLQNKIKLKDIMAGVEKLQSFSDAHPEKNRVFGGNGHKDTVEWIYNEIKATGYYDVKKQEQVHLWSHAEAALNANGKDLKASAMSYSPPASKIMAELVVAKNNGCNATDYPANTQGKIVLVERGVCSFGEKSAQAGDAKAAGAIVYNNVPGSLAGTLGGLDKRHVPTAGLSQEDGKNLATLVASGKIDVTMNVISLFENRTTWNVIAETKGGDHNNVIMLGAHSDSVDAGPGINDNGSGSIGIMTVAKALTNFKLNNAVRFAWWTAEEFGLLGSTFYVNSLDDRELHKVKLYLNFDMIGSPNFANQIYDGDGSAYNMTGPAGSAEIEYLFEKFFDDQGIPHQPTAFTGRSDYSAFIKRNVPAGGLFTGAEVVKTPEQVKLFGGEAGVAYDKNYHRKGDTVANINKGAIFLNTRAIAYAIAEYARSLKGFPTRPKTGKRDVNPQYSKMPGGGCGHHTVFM

[1] = target: T1, pkLAP (microsomal LAP from porcine kidney) (Sus scrofa, UniProt P15145); assay: Effect of inhibitors and metallic cations on LAP activity (Leu-AMC); format: biochemical; settings: for effect of inhibitor on pkLAP activity: Leu-AMC 5 mM
T1 construct: purchased Sigma; host or cells: porcine kidney
T1 sequence (P15145 1-963): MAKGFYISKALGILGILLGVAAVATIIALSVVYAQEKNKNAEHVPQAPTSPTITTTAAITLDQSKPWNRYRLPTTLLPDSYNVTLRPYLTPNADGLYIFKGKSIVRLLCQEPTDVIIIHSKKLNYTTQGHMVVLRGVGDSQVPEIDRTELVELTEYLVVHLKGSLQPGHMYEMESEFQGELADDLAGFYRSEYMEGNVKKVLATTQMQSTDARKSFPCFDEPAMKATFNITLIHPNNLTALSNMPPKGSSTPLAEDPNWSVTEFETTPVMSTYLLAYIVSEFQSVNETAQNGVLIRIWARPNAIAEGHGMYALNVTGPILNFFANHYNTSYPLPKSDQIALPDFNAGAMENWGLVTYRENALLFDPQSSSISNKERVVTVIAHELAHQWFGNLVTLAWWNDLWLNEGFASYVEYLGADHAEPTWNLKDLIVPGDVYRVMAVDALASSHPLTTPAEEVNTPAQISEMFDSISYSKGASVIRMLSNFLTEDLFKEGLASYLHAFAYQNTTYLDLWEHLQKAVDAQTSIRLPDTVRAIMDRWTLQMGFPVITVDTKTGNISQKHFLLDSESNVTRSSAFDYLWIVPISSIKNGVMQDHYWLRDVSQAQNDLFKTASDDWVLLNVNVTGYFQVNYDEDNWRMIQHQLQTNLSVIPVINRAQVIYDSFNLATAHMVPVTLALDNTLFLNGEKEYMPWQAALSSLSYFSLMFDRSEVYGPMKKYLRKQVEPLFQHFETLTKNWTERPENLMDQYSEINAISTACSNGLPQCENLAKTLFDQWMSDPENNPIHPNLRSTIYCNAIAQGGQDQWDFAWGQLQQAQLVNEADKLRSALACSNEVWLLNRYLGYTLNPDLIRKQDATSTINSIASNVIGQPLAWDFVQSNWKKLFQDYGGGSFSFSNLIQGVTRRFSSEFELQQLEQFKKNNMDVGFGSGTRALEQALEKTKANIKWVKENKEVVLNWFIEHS

fuLAP2 = format: biochemical, Aspergillus fumigatus; settings: for fuLAP2 activity as percentage of control reaction without any cation / fuLAP2 activity as percentage of control reaction without inhibitor: Leu-MCA substrate, 15 min pre-incubation; for effect of inhibitor on fuLAP2 activity: Leu-AMC 5 mM
fuLAP1 = fuLAP1 (Aspergillus fumigatus, UniProt Q5VJG6); assay: biochemical; format: biochemical; settings: for effect of inhibitor on fuLAP1 activity: Leu-AMC 5 mM
fuLAP1, sequence (Q5VJG6 16-388): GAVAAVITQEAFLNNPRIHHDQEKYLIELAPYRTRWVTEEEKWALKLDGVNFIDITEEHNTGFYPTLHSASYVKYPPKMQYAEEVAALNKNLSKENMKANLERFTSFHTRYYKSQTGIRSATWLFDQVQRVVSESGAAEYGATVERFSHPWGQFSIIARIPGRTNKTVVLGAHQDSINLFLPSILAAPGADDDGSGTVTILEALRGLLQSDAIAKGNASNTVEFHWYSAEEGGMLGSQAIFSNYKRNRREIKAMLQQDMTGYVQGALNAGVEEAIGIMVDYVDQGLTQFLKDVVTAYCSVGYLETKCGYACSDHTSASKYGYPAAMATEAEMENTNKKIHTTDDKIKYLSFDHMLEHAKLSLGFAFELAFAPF

ruLAP1 = ruLAP1 (Trichophyton rubrum, UniProt Q5QHG5); format: biochemical; settings: for effect of inhibitor on ruLAP1 activity: Leu-AMC 5 mM
ruLAP1, sequence (Q5QHG5 21-373): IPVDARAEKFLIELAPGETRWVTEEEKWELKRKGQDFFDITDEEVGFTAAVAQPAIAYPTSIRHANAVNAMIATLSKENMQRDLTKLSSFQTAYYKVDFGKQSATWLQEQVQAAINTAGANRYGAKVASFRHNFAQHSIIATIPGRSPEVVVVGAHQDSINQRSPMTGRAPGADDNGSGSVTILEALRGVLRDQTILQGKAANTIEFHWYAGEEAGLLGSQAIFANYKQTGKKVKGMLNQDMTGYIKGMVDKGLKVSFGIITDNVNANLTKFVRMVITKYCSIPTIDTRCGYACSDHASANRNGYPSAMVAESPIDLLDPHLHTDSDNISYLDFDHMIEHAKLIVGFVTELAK

[2] = cation salt 0.5 mM, Leu-MCA substrate, 15 min pre-incubation
[3] = cation salt 1 mM, Leu-MCA substrate, 15 min pre-incubation
[4] = inhibitor 20 μM, Leu-MCA substrate, 15 min pre-incubation
[5] = inhibitor 500 μM, Leu-MCA substrate, 15 min pre-incubation

SMILES: [Cl-].[Cl-].[Mg+2] [MgCl2]
- ruLAP2 activity as percentage of control reaction without any cation (ruLAP2; cation salt 0.5 mM): 121.2%
- ruLAP2 activity as percentage of control reaction without any cation (ruLAP2; cation salt 1 mM): 110.2%
- pkLAP activity as percentage of control reaction without any cation [1, 2]: 130.1%
- pkLAP activity as percentage of control reaction without any cation [1, 3]: 146.1%
- fuLAP2 activity as percentage of control reaction without any cation (fuLAP2; cation salt 0.5 mM): 97.6%
- fuLAP2 activity as percentage of control reaction without any cation (fuLAP2; cation salt 1 mM): 108.0%
- fuLAP1 activity as percentage of control reaction without any cation (fuLAP1; [2]): 68.5%
- fuLAP1 activity as percentage of control reaction without any cation (fuLAP1; [3]): 72.6%
- ruLAP1 activity as percentage of control reaction without any cation (ruLAP1): 129.9% and 132.6%

SMILES: CC(C)CC(=O)N[C@H](C(=O)N[C@H](C(=O)N[C@@H](CC(C)C)[C@@H](O)CC(=O)N[C@@H](C)C(=O)N[C@@H](CC(C)C)[C@@H](O)CC(=O)O)C(C)C)C(C)C [pepstatin, pepstatin A] (Isovaleryl-VV[Sta]A[Sta]-OH)
- remaining activity at 100 µM ([1]; inhibitor 100 μM, Leu-MCA substrate, 15 min pre-incubation, read-out: pkLAP activity as percentage of control reaction without inhibitor): 64%
- fuLAP2 activity as percentage of control reaction without inhibitor (fuLAP2; inhibitor 100 μM): 73%
- effect of inhibitor on fuLAP1 activity (fuLAP1): some sensitivity
- remaining activity at 100 µM (fuLAP1; inhibitor 100 μM, Leu-MCA substrate, 15 min pre-incubation, read-out: fuLAP1 activity as percentage of control reaction without inhibitor): 14%
- effect of inhibitor on ruLAP1 activity (ruLAP1): some sensitivity

SMILES: CC(C)C[C@H](NC(=O)[C@@H](O)[C@H](N)Cc1ccccc1)C(=O)O [bestatin]
- effect of inhibitor on ruLAP2 activity (ruLAP2): partial inhibitory effect
- effect of inhibitor on pkLAP activity [1]: inhibited
- remaining activity at 500 µM ([1]; inhibitor 500 μM, Leu-MCA substrate, 15 min pre-incubation, read-out: pkLAP activity as percentage of control reaction without inhibitor): 24%
- effect of inhibitor on fuLAP2 activity (fuLAP2): partial inhibitory effect
- fuLAP2 activity as percentage of control reaction without inhibitor (fuLAP2; inhibitor 500 μM): 88%
- effect of inhibitor on fuLAP1 activity (fuLAP1): inhibited
- remaining activity at 500 µM (fuLAP1; inhibitor 500 μM, Leu-MCA substrate, 15 min pre-incubation, read-out: fuLAP1 activity as percentage of control reaction without inhibitor): 11%
- effect of inhibitor on ruLAP1 activity (ruLAP1): inhibited

SMILES: Cc1ccc(S(=O)(=O)N[C@@H](CCCCN)C(=O)CCl)cc1 [TLCK]
- effect of inhibitor on ruLAP2 activity (ruLAP2): no clear inhibitory effects
- ruLAP2 activity as percentage of control reaction without inhibitor (ruLAP2; inhibitor 20 μM): 96%
- effect of inhibitor on pkLAP activity [1]: no clear inhibitory effects
- pkLAP activity as percentage of control reaction without inhibitor [1, 4]: 113%
- effect of inhibitor on fuLAP2 activity (fuLAP2): no clear inhibitory effects
- fuLAP2 activity as percentage of control reaction without inhibitor (fuLAP2; inhibitor 20 μM): 120%
- effect of inhibitor on fuLAP1 activity (fuLAP1): no clear inhibitory effects
- fuLAP1 activity as percentage of control reaction without inhibitor (fuLAP1; [4]): 80%
- effect of inhibitor on ruLAP1 activity (ruLAP1): no clear inhibitory effects
- ruLAP1 activity as percentage of control reaction without inhibitor (ruLAP1; [4]): 68%

SMILES: [Cl][Cu][Cl] [Cu^++, CuCl2]
- ruLAP2 activity as percentage of control reaction without any cation (ruLAP2; cation salt 0.5 mM): 50.9%
- ruLAP2 activity as percentage of control reaction without any cation (ruLAP2; cation salt 1 mM): 34.7%
- effect of divalent cation on pkLAP activity ([1]; Leu-AMC, cations 0.5 mM and 1 mM): highly activated
- pkLAP activity as percentage of control reaction without any cation [1, 2]: 1422.0%
- pkLAP activity as percentage of control reaction without any cation [1, 3]: 1092.4%
- fuLAP2 activity as percentage of control reaction without any cation (fuLAP2; cation salt 0.5 mM): 68.9%
- fuLAP2 activity as percentage of control reaction without any cation (fuLAP2; cation salt 1 mM): 73.6%
- fuLAP1 activity as percentage of control reaction without any cation (fuLAP1; [2]): 25.8%
- fuLAP1 activity as percentage of control reaction without any cation (fuLAP1; [3]): 17.0%

SMILES: O=C(O)c1cc[c]([Hg][Cl])cc1 [p-chloromercuribenzoate, p-chloromercuribenzoic acid]
- effect of inhibitor on ruLAP2 activity (ruLAP2): blunted the activity
- ruLAP2 activity as percentage of control reaction without inhibitor (ruLAP2; inhibitor 500 μM): 21%
- pkLAP activity as percentage of control reaction without inhibitor [1, 5]: 59%
- fuLAP2 activity as percentage of control reaction without inhibitor (fuLAP2; inhibitor 500 μM): 96%
- fuLAP1 activity as percentage of control reaction without inhibitor (fuLAP1; [5]): 90%
- ruLAP1 activity as percentage of control reaction without inhibitor (ruLAP1; 500 µM): 32%

SMILES: CC(C)C[C@H](NC(=O)[C@H]1O[C@@H]1C(=O)O)C(=O)NCCCCN=C(N)N (relative stereo) [E64, L-trans-epoxysuccinyl-leu-4-guanidinobutylamide]
- effect of inhibitor on ruLAP2 activity (ruLAP2): blunted the activity
